Measured values as given in patent US12528782B2, “Prodrugs in the modulation of interleukin” (BRISTOL-MYERS SQUIBB COMPANY, priority 2019, dated 2026).

Experiment: PK in rats after PO dosing of the prodrug of Example 1: circulating parent Compound I and prodrug
Type: in vivo
Details: for AUC / Cmax / Tmax: rat, in vivo, analyte = labelled substance
[1] = 150 mg/kg, Example 1 dosed PO at 150 mpk
[2] = 5 mg/kg, Example 1 dosed PO at 5 mpk
[3] = 25 mg/kg, Example 1 dosed PO at 25 mpk

Row | Compound | circulating prodrug as % of parent (PO, 150 mpk dose) | exposure to the prodrug (circulating prodrug following administration) (PO, therapeutic doses (5 and 25 mpk)) | AUC [1] [µM·h] | Cmax [1] [µM] | Tmax [1] [h] | AUC Multiple+ (Example 1 dosed PO at 5 mpk) [X] | AUC Multiple+ (Example 1 dosed PO at 25 mpk) [X] | AUC Multiple+ (Example 1 dosed PO at 150 mpk) [X] | AUC [2] [µM·h] | Cmax [2] [µM] | Tmax [2] [h] | AUC [3] [µM·h] | Cmax [3] [µM] | Tmax [3] [h]
1 | [2H]C([2H])([2H])NC(=O)c1cn(COP(=O)([O-])[O-])/c(=N/C(=O)C2CC2)cc1Nc1cccc(-c2nnn(C)n2)c1OC.[Na+].[Na+] [Example 1] | less than 0.05% | no exposure | 0.33 ± 0.21 | 0.69 ± 0.24 | 0.25 | – | – | – | – | – | – | – | – | –
2 | [2H]C([2H])([2H])NC(=O)c1cnc(NC(=O)C2CC2)cc1Nc1cccc(-c2nnn(C)n2)c1OC [Compound I] | – | – | 804 ± 26.9 | 58.2 ± 5.7 | 3 | 11 | 57 | 473 | 19.2 ± 1.7 | 4.91 ± 1.4 | 0.5 | 96.9 ± 13.2 | 13 ± 1.4 | 3
